From patent US20100333217A1, “SCREENING METHOD FOR THE COMPOSITION FOR PREVENTION OR TREATMENT OF OSTEOPOROSIS AND METABOLIC BONE DISEASE USING TALLYHO/JNGJ MOUSE” (KOREA RESERACH INSTITUTE OF CHEMICAL TECHNOLOGY, priority 2007, published 2010)

What was measured:
male TH mice [1] = experiment: Micro-CT bone mineral density, bone mineral content and skull thickness in drug-treated male TH mice; type: in vivo, mouse
Experimental: Control mice (C57BL/6) and TH mice were freely fed, and their bone mineral densities were measured every week from 4 week age to 20 week age after delectation. The mice were anesthetized with Avertin (2,2,2-tribromoethanol) to keep them alive while measuring their bone mineral densities. […] Thereafter, the resulting images were reformed using Microview (GE Healthcare, USA) to obtain the final bone mineral density (BMD) and the final bone mineral content (BMC) (see FIG. 2).
Control mice (C57BL/6) and TH mice were fed freely. […] Thereafter, the bone thicknesses and the bone mineral densities of the extracted skulls were measured as described in Example 2, using a tomographic apparatus (micro-CT) for animals.
8-week-old male TH mice were orally administered with parathyroid hormone (hPTH(1-34), Sigma, USA), which is started to be used as an osteoporosis medicine increasing the bone mineral content, with a concentration of 50 μg/kg, once a day for 4 weeks.

male TH mice [2] = conditions: oral 5 mg/kg once a day for 4 weeks, femur of 8-week-old mouse, micro-CT (FIG. 19)
Experimental: Thereafter, the bone mineral density and the bone mineral content of the femur and the thickness and the bone mineral density of the skull were measured as described in Examples 2 and 3. […] The TH mice and B6 mice were sacrificed with carbon dioxide. The femurs thereof were extracted and scanned 400 times with a thickness of […] using eXplore Locus micro-CT (GE Healthcare, USA) which is devised as a tomographic apparatus for small animals. The scanned images were accurately reformed using Microview (GE Healthcare, USA) to obtain final histomorphological images of the femurs.

IL-6 = conditions: male TH mice, oral 5 mg/kg once a day for 4 weeks; ELISA (FIG. 20)
Experimental: (§1) Thereafter, the bone mineral density and the bone mineral content of the femur and the thickness and the bone mineral density of the skull were measured as described in Examples 2 and 3.
Meanwhile, after separating the blood serum, IL-6 level was measured using ELISA Kit (ALPCO diagnostics, USA).

OPG = conditions: cells separated from bone marrow of treated TH mice and cultured, RT-PCR; vs vehicle (FIG. 21)
Experimental: (§2) After separating mRNA from the cell of FIG. 4, the expression levels of the genes related to the differentiation of osteoblast and osteoclast and cytokines were analyzed. The total RNA was obtained from the Extraction Kit (Intron, Seongnam, Korea) according to the manufacturer's protocol. The separated RNA was weighed by measuring the absorbance. The reverse transcription PCR (RT-PCR) was performed using primers listed in Table 1 under the following conditions to examine the expression level of each of the genes.
(§3) Reverse Transcription System (Promega, USA) was added with total RNA 1 μg, 10 mM dNTP 2 μl, 100 pmole Oligo dT 1 μl, 10×buffer 2 μl, 25 mM MgCl2 4 μl, RNase inhibitor 0.2 μl, AMV RTase 0.2 μl, and DEPC-treated water, and cultured at 42° C. for 60 minutes and at 72° C. for 10 minutes to prepare cDNA. Then, the reverse transcripted cDNA sample was amplified using primer pairs specific to respective target genes. The PCR was repeated 25-30 times after denaturation at 95° C. for 5 minutes. In specific, the PCR was performed under the condition of denaturation at 95° C. for 30 seconds, primer annealing at 55° C. (NPY1receptor), 56° C.
as §1

RANKL = conditions: cells separated from bone marrow of treated TH mice and cultured, RT-PCR; vs vehicle (FIG. 21)
Experimental: as §2, §3, §1

Row | Molecule | bone mineral densities (male TH mice [1]; 8-week-old male TH mice, 50 μg/kg once a day for 4 weeks, orally administered (so in the source), femur, vs 12-week-old TH mice treated with vehicle only (FIG. 22)) | bone mineral contents (male TH mice [1]; 8-week-old male TH mice, 50 μg/kg once a day for 4 weeks, orally administered (so in the source), femur, vs 12-week-old TH mice treated with vehicle only (FIG. 23)) | histomorphological images of the femurs (recovering the bone loss) (male TH mice [2]) | IL-6 level in blood serum (IL-6) | OPG gene expression (OPG) | RANKL gene expression (RANKL) | bone mineral contents in the femurs (male TH mice [1]; 4-week-old male TH mice, oral 5 mg/kg once a day for 4 weeks, vs 8-week-old TH mice treated with vehicle only (FIG. 16)) | thicknesses of the skulls (male TH mice [1]; 4-week-old male TH mice, oral 5 mg/kg once a day for 4 weeks, vs TH mice vehicle (FIG. 17))
1 | parathyroid hormone (hPTH(1-34) (SVSEIQLMHNLGKHLNSMERVEWLRKKLQDVHNF; Parathyroid hormone; UniProt P01270 32-65, looked up, fragment) [parathyroid hormone hPTH(1-34), Sigma; osteoporosis medicine increasing the bone mineral content] | significantly recovered | significantly recovered | – | – | – | – | – | –
2 | NCCCC(O)(P(=O)(O)O)P(=O)(O)O [alendronate] | – | – | filled with trabeculars | low IL-6 level | increased | decreased | significantly recovered | significantly recovered
